What was measured:
TRPV4 [1] = molecular target: T1, TRPV4 (Mus musculus, UniProt Q9EPK8); assay: Calcium imaging of TRPV4-mediated [Ca2+]i in pancreatic acini (agonists, shear stress, Yoda1 sustained phase); assay type: cell-based
T1 construct: endogenous in cells; host or cells: freshly isolated mouse pancreatic acini (C57BL/6J WT)
Procedure: (§1) Mouse pancreatic acini were isolated using a standard collagenase digestion protocol. Isolated acini were plated on a thin-layered, Matrigel-coated, glass-bottom, culture plate (MatTek, P35G-0-14-C). Freshly isolated acini were used in each experiment.
Parallel-plate fluid flow chambers (μ-Slide I 0.4 Luer, and μ-Slide I 0.2 Luer from Ibidi GmbH) were used to measure the shear stress-induced changes in intracellular calcium, mitochondrial depolarization, and trypsin activation. The constant flow rate with shear stress (T) was determined as follows: τ=η×[…] φ for μ-Slide I 0.4 Luer and τ=η×330.4 φ for μ-Slide I 0.2 Luer, where η=viscosity of the medium and φ=flow rate (according to the manufacturer's instructions, Ibidi).
(§2) Calcium imaging in pancreatic acini was performed as previously described. The chemicals used in calcium imaging experiments included the following: Yoda1 (Tocris; 5586), GsMTx4 (Abcam; ab141871), 5′,6′-EET (Santa Cruz Biotechnology; sc-221066), AA (Millipore Sigma; A3611), HC067047 (Tocris; 4100), GSK1016790A (Millipore Sigma; G0798), RN1734 (Tocris; 3746), AACOCF3 (Tocris; 1462), YM26734 (Tocris; 2522), GF109203X (Tocris; 0741), and CCK8 (Sigma-Aldrich).

TRPV4 [2] = molecular target: T1, TRPV4; assay: Calcium imaging of TRPV4-mediated [Ca2+]i in mouse PSCs; assay type: cell-based
Procedure: (§3) Mouse and human PSCs were isolated using collagenase digestion. Modified Krebs Henseleit Buffer (KHB) solution (100 mL) was prepared as previously described by Romac et al., Nat. Commun. 9(1):1715 (2018). Pancreatic tissue was digested with 2 mg of collagenase NB 8 (SERVA, catalog 17456) dissolved in 10 mL of modified KHB solution containing 1 mg soybean trypsin inhibitor (SBTI 1-S; Millipore Sigma, catalog T9003) and 20 mg BSA (Thermo Fisher Scientific; BP1600-100). Digestion solution (5 mL) was used to inflate the pancreas. Pancreas with 5 mL of digestion solution was incubated in a shaking water bath for 10 minutes at 37° C. The solution was then discarded. The pancreas tissue was cut into small pieces and digested with fresh 5 mL digestion buffer. Tissue was incubated in a shaking water bath for 40 minutes at 37° C. The cells were then separated from tissue by pipetting up-down with a 10 mL pipette and passed sequentially through a 70 μm and a 40 μm cell strainer. The filtrate was centrifuged at 150×g for 3 minutes at room temperature. The cells were washed with 10 mL Leibovitz's media (Thermo Fisher Scientific, catalog 11415-064), passed through a 20 μm filter, and centrifuged at 80×g for 3 minutes at room temperature. The supernate was removed, and isolated stellate cells were plated on a thin-layered Matrigel-coated glass bottom culture plate (MatTek, P35G-0-14-C). Before plating the cells, Matrigel solution (Corning, catalog 354234) at a ratio of 1.5:100 DMEM/F12 (Thermo Fisher Scientific, catalog 11330-032) was poured onto the culture plate and incubated for 2 hr at 37° C. to form a thin layer of Matrigel coating. Matrigel mixture was removed, and the plate was washed with PBS before cells were plated. Cell culture media, DMEM/F12 with 5% FBS was used for mouse stellate cells. Fresh, human pancreatic tissue was digested with collagenase as described above with modifications. […] The cell viability following Yoda1 treatment was analyzed using the Live/Dead cell imaging kit (Thermo Fisher Scientific, catalog R37601). […]

TRPV4 [3] = molecular target: T2, TRPV4 (Homo sapiens, UniProt Q9HBA0); assay: Calcium imaging of TRPV4-mediated [Ca2+]i in human PSCs; assay type: cell-based
T2 construct: Fresh, human pancreatic tissue was digested with collagenase as described above with modifications; endogenous in cells; host or cells: primary human pancreatic stellate cells from fresh human pancreatic tissue
T2 sequence (Q9HBA0 whole entry): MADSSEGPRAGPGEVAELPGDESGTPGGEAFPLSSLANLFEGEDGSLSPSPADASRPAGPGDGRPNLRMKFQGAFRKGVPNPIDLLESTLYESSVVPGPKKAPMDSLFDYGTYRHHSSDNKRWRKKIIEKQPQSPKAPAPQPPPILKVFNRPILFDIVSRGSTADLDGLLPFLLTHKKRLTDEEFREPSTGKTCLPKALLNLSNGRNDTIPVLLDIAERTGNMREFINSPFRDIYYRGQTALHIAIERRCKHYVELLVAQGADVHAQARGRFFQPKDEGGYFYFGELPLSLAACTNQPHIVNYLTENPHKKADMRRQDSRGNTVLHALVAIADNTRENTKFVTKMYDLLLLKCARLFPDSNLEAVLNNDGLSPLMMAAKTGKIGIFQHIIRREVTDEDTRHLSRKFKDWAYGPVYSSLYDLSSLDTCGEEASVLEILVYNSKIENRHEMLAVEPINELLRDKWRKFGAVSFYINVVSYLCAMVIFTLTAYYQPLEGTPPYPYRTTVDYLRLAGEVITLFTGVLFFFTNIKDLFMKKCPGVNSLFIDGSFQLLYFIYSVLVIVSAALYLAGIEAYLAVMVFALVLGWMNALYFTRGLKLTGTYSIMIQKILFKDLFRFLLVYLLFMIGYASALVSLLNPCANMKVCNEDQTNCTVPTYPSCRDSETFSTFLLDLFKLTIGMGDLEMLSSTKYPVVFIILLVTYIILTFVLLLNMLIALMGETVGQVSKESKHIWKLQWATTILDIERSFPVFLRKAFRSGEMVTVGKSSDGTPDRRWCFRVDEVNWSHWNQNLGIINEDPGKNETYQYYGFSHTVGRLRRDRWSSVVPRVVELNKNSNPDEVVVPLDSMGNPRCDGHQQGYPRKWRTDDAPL
Procedure: as §3, with “temperature.” for “temperature. The supernate was removed, and isolated stellate cells were plated on a thin-layered Matrigel-coated glass bottom culture plate (MatTek, P35G-0-14-C). Before plating the cells, Matrigel solution (Corning, catalog 354234) at a ratio of 1.5:100 DMEM/F12 (Thermo Fisher Scientific, catalog 11330-032) was poured onto the culture plate and incubated for 2 hr at 37° C. to form a thin layer of Matrigel coating. Matrigel mixture was removed, and the plate was washed with PBS before cells were plated. Cell culture media, DMEM/F12 with 5% FBS was used for mouse stellate cells. Fresh, human pancreatic tissue was digested with collagenase as described above with modifications.”

KPCY cells = assay: Orthotopic KPCY cell PDAC model with TRPV4 blocker via osmotic minipump; assay type: in vivo, mouse; settings: GSK2193874 20 mg/mL, 100 μL in subcutaneous osmotic minipump, 20 days; preliminary
Procedure: In this experimental model, KPCY cells (100,000 cells in 25 μL phosphate buffer saline pH 7, containing 1% Matrigel) are injected into the tail region of the pancreas with and without a TRPV4 blocker to investigate if a TRPV4 inhibitor can inhibit PDAC growth and stop cancer cell metastasis. For accurate and continuous dosing, the TRPV4 blocker is placed in an infusion osmotic minipump (ALZET) implanted subcutaneously. Mice are observed for 20 days. On day 20, liver and pancreas tissue are processed for microscopic imaging and quantification of mRNA levels. Serum samples are collected for analysis and quantification of pro-metastatic factors.
Tumor growth and serum SAA were measured 20 days after transplantation of KPCY cells into the pancreas, as described in FIG. 33. Mice were treated with GSK2193874 (20 mg/mL) dissolved in 6% cavitron saline buffer and 100 μL drug solution was loaded in an osmotic minipump implanted subcutaneously for 20 days.
KPCY cells resuspended in PBS+1% matrigel after trypsinization. Either 10,000 or 100,000 cells in 20 μl PBS were injected into the pancreatic tail. […]
Orthotopic injection of KPCY cells with implantation of micro-osmotic pump (Alzet, 1004) filled with either vehicle (6% cavitron W7 HP7 in water—Ashland) or GSK2193874 at 20 mg/mL. Mice were euthanized 20 days later, and organs were measured and harvested. […]

pancreatic acini = assay: CCK-induced [Ca2+]i in pancreatic acini; assay type: cell-based, mouse; settings: HC067 1 μM; CCK 1 nM
Procedure: as §1, §2

T1 sequence (Q9EPK8 whole entry): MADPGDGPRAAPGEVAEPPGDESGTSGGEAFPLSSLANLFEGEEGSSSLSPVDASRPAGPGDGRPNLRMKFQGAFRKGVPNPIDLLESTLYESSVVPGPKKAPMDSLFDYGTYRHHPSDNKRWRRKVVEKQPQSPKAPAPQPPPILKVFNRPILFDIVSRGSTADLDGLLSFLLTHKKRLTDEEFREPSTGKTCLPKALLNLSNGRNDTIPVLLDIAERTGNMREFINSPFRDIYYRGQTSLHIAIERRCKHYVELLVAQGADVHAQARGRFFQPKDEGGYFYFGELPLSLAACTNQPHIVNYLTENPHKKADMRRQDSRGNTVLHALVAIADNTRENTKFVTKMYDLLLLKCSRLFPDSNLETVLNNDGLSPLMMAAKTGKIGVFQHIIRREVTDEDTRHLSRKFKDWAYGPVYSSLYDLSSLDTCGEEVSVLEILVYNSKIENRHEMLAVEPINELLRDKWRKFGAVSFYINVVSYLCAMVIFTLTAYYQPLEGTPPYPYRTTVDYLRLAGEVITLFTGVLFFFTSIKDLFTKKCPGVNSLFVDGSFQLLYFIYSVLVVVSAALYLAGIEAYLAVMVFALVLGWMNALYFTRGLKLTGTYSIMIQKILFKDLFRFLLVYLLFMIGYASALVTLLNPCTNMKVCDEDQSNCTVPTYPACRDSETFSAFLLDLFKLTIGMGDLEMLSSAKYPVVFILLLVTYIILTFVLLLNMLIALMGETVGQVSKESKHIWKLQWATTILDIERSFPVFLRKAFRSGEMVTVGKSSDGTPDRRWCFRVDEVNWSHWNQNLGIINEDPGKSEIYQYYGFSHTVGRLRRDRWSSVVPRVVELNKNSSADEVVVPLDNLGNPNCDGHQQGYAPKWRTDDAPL

For `CC(C)C[C@H](NC(=O)c1cc2ccccc2s1)C(=O)N1CCN(C(=O)[C@H](CO)NS(=O)(=O)c2ccc(Cl)cc2Cl)CC1` [GSK101], the “agonist effect on [Ca2+]i” value (TRPV4 [1]; GSK101 50 nM, arachidonic acid 20 μM, 5′,6′-EET 5 μM) was “induced a significant increase in [Ca^2+]i”, the “agonist effect on [Ca2+]i” value (TRPV4 [2]; GSK101 100 nM, quiescent mouse PSCs) was “produced a sustained elevation in [Ca^2+]i” and the “agonist effect on [Ca2+]i” value (TRPV4 [3]; GSK101 100 nM, quiescent human PSCs) was “produced a sustained elevation in [Ca^2+]i”.

For `O=C(NC1(c2ccccc2)CC1)c1c(CN2CCC(N3CCCCC3)CC2)c(-c2cccc(C(F)(F)F)c2)nc2cc(Br)ccc12` [GSK2193874], the “pancreatic cancer (PDAC) growth” value (KPCY cells) was “inhibited pancreatic cancer growth” and the “serum SAA levels” value (KPCY cells) was “reduced serum SAA levels”.

With `Cc1c(C(=O)Nc2cccc(C(F)(F)F)c2)cc(-c2ccccc2)n1CCCN1CCOCC1` [HC067] the “effect on AA- and 5′,6′-EET-induced [Ca2+]i increases” value (TRPV4 [1]; HC067 100 nM) was “inhibited”, the “effect on GSK101 (50 nM)-induced [Ca2+]i increase” value (TRPV4 [1]; HC067 100 nM, RN1734 30 μM) was “inhibited” and the “effect on shear stress-induced sustained [Ca2+]i elevation” value (TRPV4 [1]; HC067 1 μM, 12 dyne/cm^2 for 30 seconds) was “blocked the sustained [Ca^2+]i elevation, leaving only transient alterations in [Ca^2+]i”. For the same molecule, the “effect on Yoda1-stimulated sustained [Ca2+]i increase” value (TRPV4 [1]; HC067 1 μM, Yoda1 25 μM) was “completely blocked the Yoda1-stimulated (25 μM) sustained increase in [Ca^2+]i”, the “effect on GSK1016790A-induced sustained [Ca2+]i elevation” value (TRPV4 [2]; HC067 1 μM, mouse PSCs) was “blocked” and the “effect on GSK1016790A-induced sustained [Ca2+]i elevation” value (TRPV4 [3]; HC067 1 μM, human PSCs) was “blocked”. For the same molecule, the “effect on CCK-stimulated peak or sustained [Ca2+]i” value (pancreatic acini) was “did not affect the CCK-stimulated (1 nM) peak or sustained [Ca^2+]i changes”.
